# Counter-ions that a name gives are not always drawn.
# What was measured:
# [1] = target: T1, PDE10A (human) (Homo sapiens, UniProt Q9Y233); test: Measurement of PDE activity (HTRF cAMP kit), human PDE10A; assay type: biochemical; details: PDE enzymatic reaction, substrate 20 nM for PDE10, 60 minutes at 29 C
# T1 construct: purchased BPS Bioscience
# In short: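 Recombinant human PDE10A (10–250 pM range across PDEs) with 20 nM cAMP substrate in 20 mM Tris-HCl pH 7.5, 10 mM MgCl2, 0.1% BSA, compound pre-mixed with enzyme. Ran 60 min at 29 °C. Remaining cAMP read by HTRF, converted to % of uninhibited activity, and IC50 fitted.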
# [2] = Determination of the microsomal half-life, human liver microsomes; details: for microsomal CLint at 0.5 μM: human, liver microsomes, pH 7.4
# [3] = Determination of the microsomal half-life, rat liver microsomes; details: for microsomal CLint at 0.5 μM: rat, liver microsomes, pH 7.4
# T1 sequence (Q9Y233 whole entry): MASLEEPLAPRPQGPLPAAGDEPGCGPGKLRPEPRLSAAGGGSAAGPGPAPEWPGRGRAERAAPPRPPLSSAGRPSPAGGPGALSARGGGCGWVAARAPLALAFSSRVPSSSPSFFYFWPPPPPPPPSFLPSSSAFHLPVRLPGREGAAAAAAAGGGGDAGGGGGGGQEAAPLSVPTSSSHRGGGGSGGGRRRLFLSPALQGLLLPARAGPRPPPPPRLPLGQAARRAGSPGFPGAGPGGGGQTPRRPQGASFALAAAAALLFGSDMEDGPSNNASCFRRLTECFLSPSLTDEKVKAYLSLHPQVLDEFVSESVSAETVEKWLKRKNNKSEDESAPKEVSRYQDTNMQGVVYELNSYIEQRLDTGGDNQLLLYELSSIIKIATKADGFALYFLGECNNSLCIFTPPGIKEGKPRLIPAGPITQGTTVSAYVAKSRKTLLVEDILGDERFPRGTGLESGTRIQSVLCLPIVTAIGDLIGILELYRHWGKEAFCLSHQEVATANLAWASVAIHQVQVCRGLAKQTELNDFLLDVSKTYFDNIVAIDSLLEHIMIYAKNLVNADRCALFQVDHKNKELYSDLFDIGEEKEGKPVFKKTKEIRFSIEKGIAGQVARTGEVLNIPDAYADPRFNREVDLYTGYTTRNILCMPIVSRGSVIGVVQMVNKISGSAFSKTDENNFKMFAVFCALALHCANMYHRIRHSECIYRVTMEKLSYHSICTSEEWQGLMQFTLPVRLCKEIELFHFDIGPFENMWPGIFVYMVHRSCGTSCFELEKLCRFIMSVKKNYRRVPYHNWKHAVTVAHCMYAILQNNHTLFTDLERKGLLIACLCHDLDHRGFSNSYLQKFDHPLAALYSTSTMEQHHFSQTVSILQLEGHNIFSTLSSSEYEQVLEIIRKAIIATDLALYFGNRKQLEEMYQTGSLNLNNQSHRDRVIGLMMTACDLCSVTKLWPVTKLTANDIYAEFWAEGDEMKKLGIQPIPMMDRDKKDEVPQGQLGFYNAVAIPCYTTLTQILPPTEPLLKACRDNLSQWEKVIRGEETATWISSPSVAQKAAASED
Structure (SMILES),IC50 [1] [nM],microsomal CLint at 0.5 μM [2] [µL/min/mg],microsomal CLint at 0.5 μM [3] [µL/min/mg],"Human mCl (mikrosomal clearance) ([2]; human liver microsomes, 0.5 μM test substance, 0.25 mg microsomal protein, pH 7.4, 37° C., NADPH)","Rat mCl (mikrosomal clearance) ([3]; rat liver microsomes, 0.5 μM test substance, 0.25 mg microsomal protein, pH 7.4, 37° C., NADPH)"
"Cn1c(CCN2Cc3cccc(N4CCOCC4)c3C2=O)nc2cc(F)ccc21 [Example 262, 2-[2-(5-Fluoro-1-methyl-1H-benzoimidazol-2-yl)-ethyl]-7-morpholin-4-yl-2,3-dihydro-isoindol-1-one]",< 100,100 to 220,< 100,–,–
"O=C1c2c(N3CCOCC3)ccnc2CN1CCc1cn2ccccc2n1 [Example 270, 6-(2-Imidazo[1,2-a]pyridin-2-yl-ethyl)-4-morpholin-4-yl-6,7-dihydro-pyrrolo[3,4-b]pyridin-5-one di-trifluoroacetate]",< 100,< 100,< 100,–,–
"O=C(O)C(F)(F)F.O=C(O)C(F)(F)F.O=C1c2c(-c3ccc(F)cc3)ccnc2CN1CCc1ccc2ccccc2n1 [Example 160, 4-(4-Fluoro-phenyl)-6-(2-quinolin-2-yl-ethyl)-6,7-dihydro-pyrrolo[3,4-b]pyridin-5-one (di trifluoroacetate)]",< 100,–,–,+ (+: 100-220 μl min^−1 mg^−1),∘ (∘ not avialable or >220 μl min^−1 mg^−1)
"O=C1c2c(cccc2N2CCS(=O)(=O)CC2)CN1CCc1cn2ccccc2n1 [Example 234, 7-(1,1-Dioxothiomorpholin-4-yl)-2-(2-imidazo[1,2-a]pyridin-2-yl-ethyl)-2,3-dihydro-isoindol-1-one]",< 100,< 100,< 100,–,–
"CN(C)CCCn1c(CCN2Cc3cccc(-c4ccncc4)c3C2=O)nc2ccccc21 [Example 294, 2-{2-[1-(3-Dimethylamino-propyl)-1H-benzoimidazol-2-yl]-ethyl}-7-pyridin-4-yl-2,3-dihydro-isoindol-1-one trifluoroacetate]",200 to 500,100 to 220,< 100,–,–
"O=C1Cc2ccc(-c3cccc4c3C(=O)N(CCc3cn5ccccc5n3)C4)cc2N1 [Example 241, 6-[2-(2-Imidazo[1,2-a]pyridin-2-yl-ethyl)-3-oxo-2,3-dihydro-1H-isoindol-4-yl]-1,3-dihydro-indol-2-one]",< 100,< 100,< 100,–,–
"O=C1c2c(cccc2-c2ccc3nn[nH]c3c2)CN1CCc1ccc2ccccc2n1 [Example 10, 7-(3H-Benzotriazol-5-yl)-2-(2-quinolin-2-yl-ethyl)-2,3-dihydro-isoindol-1-one trifluoroacetate]",< 100,100 to 220,< 100,–,–
"O=C1c2cccc(N3CCOCC3)c2CN1CCc1ccc2ccccc2n1 [Example 130, 4-Morpholin-4-yl-2-(2-quinolin-2-yl-ethyl)-2,3-dihydro-isoindol-1-one; compound with trifluoro-acetic acid]",< 100,100 to 220,> 220,–,–
"O=C1c2cccc(-c3cc[nH]n3)c2CN1CCc1ccc2ccccc2n1 [Example 200, 4-(1H-Pyrazol-3-yl)-2-(2-quinolin-2-yl-ethyl)-2,3-dihydro-isoindol-1-one]",< 100,100 to 220,> 220,–,–
"O=C1c2c(cccc2-c2cccnc2)CN1CCc1nc2ncccc2[nH]1 [Example 253, 2-[2-(1H-Imidazo[4,5-b]pyridin-2-yl)-ethyl]-7-pyridin-3-yl-2,3-dihydro-isoindol-1-one]",200 to 500,< 100,< 100,–,–
"Cn1cnc2ccc(-c3cccc4c3C(=O)N(CCc3ccc5ccccc5n3)C4)cc21 [Example 8, 7-(3-Methyl-3H-benzoimidazol-5-yl)-2-(2-quinolin-2-yl-ethyl)-2,3-dihydro-isoindol-1-one trifluoroacetate]",200 to 500,> 220,100 to 220,–,–
"Cc1ncccc1-c1cccc2c1C(=O)N(CCc1ccc3ccccc3n1)C2 [Example 86, 7-(2-Methyl-pyridin-3-yl)-2-(2-quinolin-2-yl-ethyl)-2,3-dihydro-isoindol-1-one]",< 100,100 to 220,> 220,–,–
"O=C1c2c(N3CCOCC3)ccnc2CN1CCc1ccc2ccccc2n1 [Example 119, 4-Morpholin-4-yl-6-(2-quinolin-2-yl-ethyl)-6,7-dihydro-pyrrolo[3,4-b]pyridin-5-one]",< 100,< 100,< 100,–,–

# More lines, main results first:
IC50 [1] [nM],microsomal CLint at 0.5 μM [2] [µL/min/mg],microsomal CLint at 0.5 μM [3] [µL/min/mg],Structure (SMILES),"Human mCl (mikrosomal clearance) ([2]; human liver microsomes, 0.5 μM test substance, 0.25 mg microsomal protein, pH 7.4, 37° C., NADPH)","Rat mCl (mikrosomal clearance) ([3]; rat liver microsomes, 0.5 μM test substance, 0.25 mg microsomal protein, pH 7.4, 37° C., NADPH)"
< 100,< 100,< 100,"COc1ccc(-c2ccncc2)c2c1CN(CCc1cn3ccccc3n1)C2=O [Example 374, 2-(2-Imidazo[1,2-a]pyridin-2-yl-ethyl)-4-methoxy-7-pyridin-4-yl-2,3-dihydro-isoindol-1-one]",–,–
< 100,100 to 220,100 to 220,"COc1cccc(CCN2Cc3nccc(-c4ccncc4)c3C2=O)n1 [compound 553, 6-[2-(6-Methoxy-2-pyridyl)ethyl]-4-(4-pyridyl)-7H-pyrrolo[3,4-b]pyridin-5-one]",–,–
< 100,< 100,100 to 220,"O=C1c2cccc(-c3cscn3)c2CN1CCc1cn2ccccc2n1 [compound 537, 2-(2-Imidazo[1,2-a]pyridin-2-ylethyl)-4-thiazol-4-yl-isoindolin-1-one]",–,–
200 to 500,< 100,< 100,"O=C1c2c(-c3cscn3)ccnc2CN1CCc1nc2ccccc2s1 [compound 436, 6-[2-(1,3-Benzothiazol-2-yl)ethyl]-4-thiazol-4-yl-7H-pyrrolo[3,4-b]pyridin-5-one]",–,–
< 100,< 100,< 100,"Cc1ccc2c(c1)nc(CCN1Cc3nccc(-c4ccnn4C)c3C1=O)n2C [compound 540, 6-[2-(1,5-Dimethylbenzimidazol-2-yl)ethyl]-4-(2-methylpyrazol-3-yl)-7H-pyrrolo[3,4-b]pyridin-5-one]",–,–
< 100,> 220,100 to 220,"O=C1c2c(N3CCOCC3)ccnc2CN1CCc1nc2ccc(F)cc2s1 [compound 405, 6-[2-(6-Fluoro-1,3-benzothiazol-2-yl)ethyl]-4-morpholino-7H-pyrrolo[3,4-b]pyridin-5-one]",–,–
< 100,< 100,> 220,"Cc1nc(CCN2Cc3nccc(N4CCOCC4)c3C2=O)sc1C [compound 519, 6-[2-(4,5-Dimethylthiazol-2-yl)ethyl]-4-morpholino-7H-pyrrolo[3,4-b]pyridin-5-one]",–,–
200 to 500,< 100,< 100,"Cn1nccc1-c1ccnc2c1CN(CCc1ccc3ccccc3n1)C2=O [compound 459, 4-(2-Methyl-2H-pyrazol-3-yl)-6-(2-quinolin-2-yl-ethyl)-5,6-dihydro-pyrrolo[3,4-b]pyridin-7-one trifluoroacetate]",–,–
< 100,100 to 220,100 to 220,"Cc1ncc(-c2ccnc3c2C(=O)N(CCc2ccc4ccccc4n2)C3)s1 [Example 326, 4-(2-Methyl-thiazol-5-yl)-6-(2-quinolin-2-yl-ethyl)-6,7-dihydro-pyrrolo[3,4-b]pyridin-5-one]",–,–
< 100,< 100,< 100,"O=C1c2c(-c3ccoc3)ccnc2CN1CCc1cn2ccccc2n1 [compound 414, 4-Furan-3-yl-6-(2-imidazo[1,2-a]pyridin-2-yl-ethyl)-6,7-dihydro-pyrrolo[3,4-b]pyridin-5-one]",–,–
< 100,100 to 220,> 220,"O=C1c2c(N3CCC(CF)C3)ccnc2CN1CCc1nc2ccccc2s1 (stereo not drawn) [compound 387, 6-[2-(1,3-Benzothiazol-2-yl)ethyl]-4-[3-(fluoromethyl)pyrrolidin-1-yl]-7H-pyrrolo[3,4-b]pyridin-5-one]",–,–
100 to 200,< 100,< 100,"O=C1c2c(-c3cncnc3)ccnc2CN1CCc1nc2ccccc2s1 [compound 544, 6-[2-(1,3-Benzothiazol-2-yl)ethyl]-4-pyrimidin-5-yl-7H-pyrrolo[3,4-b]pyridin-5-one]",–,–
100 to 200,100 to 220,100 to 220,"COc1cccc(CCN2Cc3nccc(-c4cccnc4)c3C2=O)n1 [compound 503, 6-[2-(6-Methoxy-2-pyridyl)ethyl]-4-(3-pyridyl)-7H-pyrrolo[3,4-b]pyridin-5-one trifluoroacetate]",–,–
< 100,< 100,100 to 220,"O=C1c2nccc(-c3ccncc3)c2CN1CCc1ccc2ccccc2n1 [compound 451, 4-Pyridin-4-yl-6-(2-quinolin-2-yl-ethyl)-5,6-dihydro-pyrrolo[3,4-b]pyridin-7-one]",–,–
< 100,> 220,100 to 220,"COc1ccc(NC2COC2)c2c1CN(CCc1nc3ccccc3n1C)C2=O [compound 411, 4-Methoxy-2-[2-(1-methyl-1H-benzoimidazol-2-yl)-ethyl]-7-(oxetan-3-ylamino)-2,3-dihydro-isoindol-1-one]",–,–
< 100,< 100,100 to 220,"O=C1c2c(N3CCS(=O)(=O)CC3)ccnc2CN1CCc1nc2ccccc2s1 [compound 390, 6-[2-(1,3-Benzothiazol-2-yl)ethyl]-4-(1,1-dioxo-1,4-thiazinan-4-yl)-7H-pyrrolo[3,4-b]pyridin-5-one trifluoroacetate]",–,–

# From patent US9938269B2, “Inhibitor compounds of phosphodiesterase type 10A” (ABBVIE INC., priority 2011, dated 2018)
